Data as given in US20050250822A1, “Substituted benzanilide compound and noxious organism controlling agent” (priority 2002, published 2005).
Like-named read-outs stand apart in the source and are kept apart here.

Columns and labels:
[1] = tested on: Common cutworms (Spodoptera litura) with second instar larvae; experiment: Insecticidal test against common cutworm (leaf dip); type: in vivo; conditions: foliar, 144 h, read-out: insecticidal rate (rate of dead insects)
Procedure: Insecticidal Test Against Common Cutworm
(§1) A 10% emulsifiable concentrate (depending on the compounds, 25% wettable powder was applied for the test) of the compound of the present invention was diluted with water containing a spreading agent to prepare a chemical solution with a concentration of 100 ppm. To the chemical solution was dipped leaves of Chinese olive for about 10 seconds, and after air-drying, they were placed in a laboratory dish, then, 10 Common cutworms (Spodoptera litura) with second instar larvae per the dish were released therein, and the dish was covered with a lid having holes and contained at a thermostat chamber at 25° C. A number of dead insect(s) after 6 days was counted and a rate of dead insects was calculated by the following calculation formula. Incidentally, the test was carried out with two districts. Rate of dead insects (%)=(Number of dead insects/Number of released insects)×100

[2] = tested on: diamondback moths (Plutella xylostella) with second instar larvae; experiment: Insecticidal test against diamondback moth (leaf dip); type: in vivo; conditions: foliar, 144 h, read-out: insecticidal rate (rate of dead insects)
Procedure: Insecticidal Test Against Diamondback Moth
as §1, with “diamondback moths (Plutella xylostella)” for “Common cutworms (Spodoptera litura)”, “in” for “by”, “same manner as in Test Example 1.” for “following calculation formula.”, “districts.” for “districts. Rate of dead insects (%)=(Number of dead insects/Number of released insects)×100”

[3] = chemical solution 100 ppm, leaf dip, 25° C., dead insects counted after 6 days

| SMILES | pest or weed control at 100 ppm [1, 3] [%] | pest or weed control at 100 ppm [2, 3] [%] | pest or weed control at 100 ppm [1] [%] | pest or weed control at 100 ppm [2] [%] |
| --- | --- | --- | --- | --- |
| Cc1cc(C2(C(F)(F)F)CC(c3ccc([S+](C)[O-])cc3)=NO2)ccc1NC(=O)c1cccc(I)c1C(=O)NC(C)C (stereo not shown) [2-037, 3-Iodo-N 2 isopropyl-N^1-[4-[3-(4-methylsulfinylphenyl)-5-trifluoromethyl-4,5-dihydroisoxazol-5-yl]-2-methylphenyl]phthalic diamide] | ≥ 80 | ≥ 80 |  |  |
| Cc1cc(C2(C(F)(F)F)ON=C(c3ccc(F)cc3)O2)ccc1NC(=O)c1cccc(I)c1C(=O)NC(C)C (stereo not shown) [4-05, N^1-[4-[3-(4-fluorophenyl)-5-trifluoromethyl-1,4,2-dioxazolin-5-yl]-2-methylphenyl]-3-iodo-N 2-isopropylphthalic diamide] | ≥ 80 | ≥ 80 |  |  |
| CC1=NC(c2ccc(Cl)cc2)=CC(c2ccc(NC(=O)c3cccc(I)c3C(=O)NC(C)C)c(C)c2)(C(F)(F)F)N1 (stereo not shown) [8-01, N^1-[4-[6-(4-chlorophenyl)-2-methyl-4-trifluoromethyl-3,4-dihydropyrimidin-4-yl]-2-methylphenyl]-3-iodo-N^2-isopropylphthalic diamide] | ≥ 80 | ≥ 80 |  |  |
| Cc1cc(C2(C(F)(F)F)OCC(c3ccc(Cl)cc3)O2)ccc1NC(=O)c1cccc(I)c1C(=O)NC(C)C (stereo not shown) [7-03, N^1-[4-[4-(4-chlorophenyl)-2-trifluoromethyl-1,3-dioxolan-2-yl]-2-methylphenyl]-3-iodo-N^2-isopropylphthalic diamide] | ≥ 80 | ≥ 80 |  |  |
| Cc1cc(C2(C3CC3)CC(c3ccc(Cl)cc3)=NO2)ccc1NC(=O)c1cccc(I)c1C(=O)NC(C)C (stereo not shown) [2-013, N^1-[4-[3-(4-chlorophenyl)-5-cyclopropyl-4,5-dihydroisoxazol-5-yl]-2-methylphenyl]-3-iodo-N 2-isopropylphthalic diamide] | ≥ 80 | ≥ 80 |  |  |
| CSCC(C)NC(=O)c1c(I)cccc1C(=O)Nc1ccc(C2(c3ccc(Cl)cc3)CC2(Cl)Cl)cc1C (stereo not shown) [9-041, N^1-[4-(2,2-dichloro-1-(4-chlorophenyl)cyclopropyl)-2-methylphenyl]-3-iodo-N^2-(1-methyl-2-methylthioethyl)phthalic diamide] |  |  | ≥ 80 | ≥ 80 |
| Cc1cc(C2(C(F)(F)F)CC2(C#N)C#N)ccc1NC(=O)c1cccc(I)c1C(=O)NC(C)C (stereo not shown) [9-001, N^1-[4-(2,2-dicyano-1-trifluoromethylcyclopropyl)-2-methylphenyl]-3-iodo-N^2-isopropylphthalic diamide] | ≥ 80 | ≥ 80 |  |  |
| CSCC(C)NC(=O)c1c(I)cccc1C(=O)Nc1ccc(C2(C(F)(F)F)CC(c3ccc(Cl)cc3)=NO2)cc1C (stereo not shown) [2-095, N^1-[4-[3-(4-chlorophenyl)-5-trifluoromethyl-4,5-dihydroisoxazol-5-yl]-2-methylphenyl]-3-iodo-N^2-(1-methyl-2-methylthioethyl)phthalic diamide] | ≥ 80 | ≥ 80 |  |  |
| CC1=NOC(c2ccc(NC(=O)c3c(I)cccc3C(=O)NC(C)C)c(C)c2)(C(F)(F)F)C1 (stereo not shown) [1-007, 6-iodo-N^2-isopropyl-N^1-[2-methyl-4-(3-methyl-5-trifluoromethyl-4,5-dihydroisoxazol-5-yl)phenyl]phthalic diamide] |  | ≥ 80 |  |  |
| CC1=NN(c2ccc(Cl)cc2)C(c2ccc(NC(=O)c3cccc(I)c3C(=O)NC(C)C)c(C)c2)C1 (stereo not shown) [6-02, N^1-[4-[1-(4-chlorophenyl)-3-methyl-4,5-dihydropyrazol-5-yl]-2-methylphenyl]-3-iodo-N^2-isopropylphthalic diamide] |  | ≥ 80 |  |  |
| CSCC(C)NC(=O)c1c(I)cccc1C(=O)Nc1ccc(C2(c3ccc(Cl)cc3)CC2(F)F)cc1C (stereo not shown) [9-026, N^1-[4-(2,2-difluoro-1-(4-chlorophenyl)cyclopropyl)-2-methylphenyl]-3-iodo-N^2-(1-methyl-2-methylthioethyl)phthalic diamide] | ≥ 80 | ≥ 80 |  |  |
| Cc1cc(C2(c3ccc(Cl)cc3)CC2(F)F)ccc1NC(=O)c1cccc(I)c1C(=O)NC(C)CS(C)(=O)=O (stereo not shown) [9-065, N^1-[4-(2,2-difluoro-1-(4-chlorophenyl)cyclopropyl)-2-methylphenyl]-3-iodo-N^2-(1-methyl-2-methylsulfonylethyl)phthalic diamide] | ≥ 80 | ≥ 80 |  |  |
| Cc1cc(C2(C(F)(F)F)CC(c3ccc(C(N)=O)cc3)=NO2)ccc1NC(=O)c1cccc(I)c1C(=O)NC(C)C (stereo not shown) [2-048, N^1-[4-[3-(4-carbamoylphenyl)-5-trifluoromethyl-4,5-dihydroisoxazol-5-yl]-2-methylphenyl]-3-iodo-N^2-isopropylphthalic diamide] | ≥ 80 | ≥ 80 |  |  |
| Cc1cc(C2(C(F)(F)C(F)(F)C(F)(F)F)CC(c3ccc(Cl)cc3)=NO2)ccc1NC(=O)c1cccc(I)c1C(=O)NC(C)C (stereo not shown) [2-059, N^1-[4-[3-(4-chlorophenyl)-5-heptafluoropropyl-4,5-dihydroisoxazol-5-yl]-2-methylphenyl]-3-iodo-N^2-isopropylphthalic diamide] |  |  | ≥ 80 | ≥ 80 |
| CC1=NOC(c2ccc(NC(=O)c3cccc(I)c3C(=O)NC(C)C)c(C)c2)(C(F)(F)F)C1 (stereo not shown) [1-006, 3-Iodo-N^2-isopropyl-N^1-[2-methyl-4-(3-methyl-5-trifluoromethyl-4,5-dihydroisoxazol-5-yl)phenyl]phthalic diamide] | ≥ 80 | ≥ 80 |  |  |
| Cc1cc(C2(C(F)(F)F)CC(c3ccc(F)cc3)=NO2)ccc1NC(=O)c1cccc(I)c1C(=O)NC(C)C (stereo not shown) [2-016, N^1-[4-[3-(4-fluorophenyl)-5-trifluoromethyl-4,5-dihydroisoxazol-5-yl]-2-methylphenyl]-3-iodo-N^2-isopropylphthalic diamide] | ≥ 80 | ≥ 80 |  |  |
| CCN(CC)C(=O)c1c(I)cccc1C(=O)Nc1ccc(C2(C(F)(F)F)CC(c3ccc(S(C)(=O)=O)cc3)=NO2)cc1C (stereo not shown) [2-162, N^2, N^2-diethyl-3-iodo-N^1-[4-[3-(4-methylsulfonylphenyl)-5-trifluoromethyl-4,5-dihydroisoxazol-5-yl]-2-methylphenyl]phthalic diamide] |  | ≥ 80 |  |  |
| Cc1cc(C2(C(F)(F)F)CC(c3ccc(F)cc3)=NO2)ccc1NC(=O)c1cccc([N+](=O)[O-])c1C(=O)NC(C)C (stereo not shown) [2-167, N^1-[4-[3-(4-fluorophenyl)-5-trifluoromethyl-4,5-dihydroisoxazol-5-yl]-2-methylphenyl]-3-nitro-N^2-isopropylphthalic diamide] | ≥ 80 | ≥ 80 |  |  |
| Cc1cc(C2(C(F)(F)F)C=NC(c3ccccc3)C2)ccc1NC(=O)c1cccc(I)c1C(=O)NC(C)C (stereo not shown) [7-04, 3-Iodo-N^2-isopropyl-N^1-[2-methyl-4-(2-phenyl-4-trifluoromethyl-3,4-dihydro-2H-pyrrol-4-yl)phenyl]phthalic diamide] | ≥ 80 | ≥ 80 |  |  |
| Cc1cc(C2(C(F)(F)F)OCC(c3ccc(Cl)cc3)S2)ccc1NC(=O)c1cccc(I)c1C(=O)NC(C)C (stereo not shown) [7-09, N^1-[4-[4-(4-chlorophenyl)-2-trifluoromethyl-1,3-oxathiolan-2-yl]-2-methylphenyl]-3-iodo-N^2-isopropylphthalic diamide] |  | ≥ 80 |  |  |
| Cc1cc(C2(C(F)(F)F)CC(c3ccc(Cl)cc3)=NN2C)ccc1NC(=O)c1cccc(I)c1C(=O)NC(C)C (stereo not shown) [6-04, N^1-[4-[3-(4-chlorophenyl)-1-methyl-5-trifluoromethyl-4,5-dihydropyrazol-5-yl]-2-methylphenyl]-3-iodo-N^2-isopropylphthalic diamide] | ≥ 80 | ≥ 80 |  |  |
| Cc1cc(C2(C(F)(F)F)CC(C(F)(F)F)=NO2)ccc1NC(=O)c1cccc(I)c1C(=O)NC(C)C (stereo not shown) [1-013, 3-Iodo-N^2-isopropyl-N^1-[2-methyl-4-(3,5-bistrifluoromethyl-4,5-dihydroisoxazol-5-yl)phenyl]phthalic diamide] |  | ≥ 80 |  |  |
| CC1=NOC(c2ccc(Cl)cc2)(c2ccc(NC(=O)c3cccc(I)c3C(=O)NC(C)C)c(C)c2)C1 (stereo not shown) [3-006, N^1-[4-[5-(4-chlorophenyl)-3-methyl-4,5-dihydroisoxazol-5-yl]-2-methylphenyl]-3-iodo-N^2-isopropylphthalic diamide] | ≥ 80 | ≥ 80 |  |  |
| CCOC(=O)C1=NOC(c2ccc(NC(=O)c3c(I)cccc3C(=O)NC(C)C)c(C)c2)(C(F)(F)F)C1 (stereo not shown) [1-020, N^1-[4-(3-ethoxycarbonyl-5-trifluoromethyl-4,5-dihydroisoxazol-5-yl)-2-methylphenyl]-6-iodo-N^2-isopropylphthalic diamide] |  | ≥ 80 |  |  |
| Cc1cc(C2(C(F)(F)F)CC(C#N)=C(c3ccccc3)O2)ccc1NC(=O)c1cccc(I)c1C(=O)NC(C)C (stereo not shown) [4-01, N^1-[4-(3-cyano-2-phenyl-5-trifluoromethyl-4,5-dihydrofuran-5-yl)-2-methylphenyl]-3-iodo-N 2-isopropylphthalic diamide] |  | ≥ 80 |  |  |
